Data: patent US20230279025A1, “KRAS G12D INHIBITORS” (Mirati Therapeutics, Inc., priority 2020, published 2023)

Biological target: KRas G12D (Homo sapiens (Human), UniProt P01116, G12D)
Assay: KRas G12D Binding Assay (TR-FRET displacement of Cy5 labelled tracer)
Settings: GDP-loaded KRAS G12D (amino acids 1:169), 60 minute incubation at 22° C.
Description: After a 60 minute incubation at 22° C., the reaction was measured using a PerkinElmer EnVision multimode plate reader via TR-FRET dual wavelength detection, and the percent of control (POC) calculated using a ratiometric emission factor. […] The POC values were fit to a 4-parameter logistic curve and the IC50 value was determined as the concentration where the curve crosses 50 POC.
ND stands for “not determined.”

KRas G12D, sequence (P01116 other isoform, or with tags, fused parts or gaps G12D): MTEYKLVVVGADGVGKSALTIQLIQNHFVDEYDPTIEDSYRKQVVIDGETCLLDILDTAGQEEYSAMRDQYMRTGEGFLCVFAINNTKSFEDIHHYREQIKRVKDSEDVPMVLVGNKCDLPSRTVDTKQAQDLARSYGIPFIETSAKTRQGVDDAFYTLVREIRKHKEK

Row | SMILES | IC50
1 | Fc1c(-c2cccc3cccc(Cl)c23)ncc2c(N3C[C@H]4CC[C@@H](C3)N4)nc(OCCC3CC(F)(F)C3)nc12 [Example 129, 4-((I R,5S)-3,8-diazabicyclo[3.2.1]octan-3-yl)-7-(8-chloronaphthalen-1-yl)-2-(2-(3,3-difluorocyclobutyl)ethoxy)-8-fluoropyrido[4,3-d]pyrimidine] | 4090 nM
2 | Fc1c(-c2cccc3cccc(Cl)c23)ncc2c(N3C[C@H]4CC[C@@H](C3)N4)nc(N3CC4(CCN4)C3)nc12 [Example 130, 4-((1R,5S)-3,8-diazabicyclo[3.2.1]octan-3-yl)-7-(8-chloronaphthalen-1-yl)-8-fluoro-2-(1,6-diazaspiro[3.3]heptan-6-yl)pyrido[4,3-d]pyrimidine] | 1650 nM
3 | Fc1c(-c2cccc3cccc(Cl)c23)ncc2c(N3C[C@H]4CC[C@@H](C3)N4)nc(OC[C@@H]3CCCO3)nc12 [Example 136, 4-((1R,5S)-3,8-diazabicyclo[3.2.1]octan-3-yl)-7-(8-chloronaphthalen-1-yl)-8-fluoro-2-(((S)-tetrahydrofuran-2-yl)methoxy)pyrido[4,3-d]pyrimidine] | 5150 nM
4 | Fc1c(-c2cccc3cccc(Cl)c23)ncc2c(N3C[C@H]4CC[C@@H](C3)N4)nc(OC[C@H]3CCCO3)nc12 [Example 137, 4-((1R,5S)-3,8-diazabicyclo[3.2.1]octan-3-yl)-7-(8-chloronaphthalen-1-yl)-8-fluoro-2-(((R)-tetrahydrofuran-2-yl)methoxy)pyrido[4,3-d]pyrimidine] | 2630 nM
5 | CO[C@H](C)COc1nc(N2C[C@H]3CC[C@@H](C2)N3)c2cnc(-c3cccc4cccc(Cl)c34)c(F)c2n1 [Example 138, 4-((1R,5S)-3,8-diazabicyclo[3.2.1]octan-3-yl)-7-(8-chloronaphthalen-1-yl)-8-fluoro-2-((R)-2-methoxypropoxy)pyrido[4,3-d]pyrimidine] | 8070 nM
6 | Nc1ccc(CCOc2nc(N3C[C@H]4CC[C@@H](C3)N4)c3cnc(-c4cccc5cccc(Cl)c45)c(F)c3n2)cn1 [Example 141, 5-(2-((4-((1R,5S)-3,8-diazabicyclo[3.2.1]octan-3-yl)-7-(8-chloronaphthalen-1-yl)-8-fluoropyrido[4,3-d]pyrimidin-2-yl)oxy)ethyl)pyridin-2-amine] | 891 nM
7 | Cn1nccc1CCOc1nc(N2C[C@H]3CC[C@@H](C2)N3)c2cnc(-c3cccc4cccc(Cl)c34)c(F)c2n1 [Example 144, 4-((1R,5S)-3,8-diazabicyclo[3.2.1]octan-3-yl)-7-(8-chloronaphthalen-1-yl)-8-fluoro-2-(2-(1-methyl-1H-pyrazol-5-yl)ethoxy)pyrido[4,3-d]pyrimidine] | 1700 nM
8 | Cn1ccc(CCOc2nc(N3C[C@H]4CC[C@@H](C3)N4)c3cnc(-c4cccc5cccc(Cl)c45)c(F)c3n2)n1 [Example 145, 4-((1R,5S)-3,8-diazabicyclo[3.2.1]octan-3-yl)-7-(8-chloronaphthalen-1-yl)-8-fluoro-2-(2-(1-methyl-1H-pyrazol-3-yl)ethoxy)pyrido[4,3-d]pyrimidine] | 5000 nM
9 | Cn1cc(CCOc2nc(N3C[C@H]4CC[C@@H](C3)N4)c3cnc(-c4cccc5cccc(Cl)c45)c(F)c3n2)cn1 [Example 146, 4-((1R,5S)-3,8-diazabicyclo[3.2.1]octan-3-yl)-7-(8-chloronaphthalen-1-yl)-8-fluoro-2-(2-(1-methyl-1H-pyrazol-4-yl)ethoxy)pyrido[4,3-d]pyrimidine] | 2290 nM
10 | Cn1cnc2ccc(Oc3nc(N4C[C@H]5CC[C@@H](C4)N5)c4cnc(-c5cccc6cccc(Cl)c56)c(F)c4n3)cc21 [Example 148, 4-((1R,5S)-3,8-diazabicyclo[3.2.1]octan-3-yl)-7-(8-chloronaphthalen-1-yl)-8-fluoro-2-((1-methyl-1H-benzo[d]imidazol-6-yl)oxy)pyrido[4,3-d]pyrimidine] | 5180 nM
11 | CO[C@H]1C[C@@H](COc2nc(N3C[C@H]4CC[C@@H](C3)N4)c3cnc(-c4cccc5cccc(Cl)c45)c(F)c3n2)N(C)C1 [Example 149, 4-((1R,5S)-3,8-diazabicyclo[3.2.1]octan-3-yl)-7-(8-chloronaphthalen-1-yl)-8-fluoro-2-(((2S,4S)-4-methoxy-1-methylpyrrolidin-2-yl)methoxy)pyrido[4,3-d]pyrimidine] | 870 nM
12 | Fc1c(-c2cccc3cccc(Cl)c23)ncc2c(N3C[C@H]4CC[C@@H](C3)N4)nc(OCc3cccn4ccnc34)nc12 [Example 150, 4-((1R,5S)-3,8-diazabicyclo[3.2.1]octan-3-yl)-7-(8-chloronaphthalen-1-yl)-8-fluoro-2-(imidazo[1,2-a]pyridin-8-ylmethoxy)pyrido[4,3-d]pyrimidine] | 1980 nM
13 | O[C@@H]1C[C@@H]2CN(c3nc(N4CCC4)nc4c(F)c(-c5cccc6cccc(Cl)c56)ncc34)C[C@H]1N2 [Example 152, (1R,5R,6R)-3-(2-(azetidin-1-yl)-7-(8-chloronaphthalen-1-yl)-8-fluoropyrido[4,3-d]pyrimidin-4-yl)-3,8-diazabicyclo[3.2.1]octan-6-ol] | 2650 nM
14 | Cn1cnnc1CCOc1nc(N2C[C@H]3CC[C@@H](C2)N3)c2cnc(-c3cccc4cccc(Cl)c34)c(F)c2n1 [Example 154, 4-((1R,5S)-3,8-diazabicyclo[3.2.1]octan-3-yl)-7-(8-chloronaphthalen-1-yl)-8-fluoro-2-(2-(4-methyl-4H-1,2,4-triazol-3-yl)ethoxy)pyrido[4,3-d]pyrimidine] | 6530 nM
15 | O[C@@H]1C[C@@H]2CN(c3nc(OCCC(F)(F)F)nc4c(F)c(-c5cccc6cccc(Cl)c56)ncc34)C[C@H]1N2 [Example 155, (1R,5R,6R)-3-(7-(8-chloronaphthalen-1-yl)-8-fluoro-2-(3,3,3-trifluoropropoxy)pyrido[4,3-d]pyrimidin-4-yl)-3,8-diazabicyclo[3.2.1]octan-6-ol] | 3420 nM
16 | CN1CCC[C@H]1COc1nc(N2CC3CCC(C(N)=O)(C2)N3)c2cnc(-c3cc(O)cc4ccccc34)c(F)c2n1 (stereo partly drawn) [Example 159, 3-(8-fluoro-7-(3-hydroxynaphthalen-1-yl)-2-(((S)-1-methylpyrrolidin-2-yl)methoxy)pyrido[4,3-d]pyrimidin-4-yl)-3,8-diazabicyclo[3.2.1]octane-1-carboxamide bis(2,2,2-trifluoroacetate)] | 331 nM
17 | O=C(CCl)N1CCC(Oc2nc(N3C[C@H]4CC[C@@H](C3)N4)c3cnc(-c4cccc5cccc(Cl)c45)c(F)c3n2)CC1 [Example 163, 1-(4-((4-((1R,5S)-3,8-diazabicyclo[3.2.1]octan-3-yl)-7-(8-chloronaphthalen-1-yl)-8-fluoropyrido[4,3-d]pyrimidin-2-yl)oxy)piperidin-1-yl)-2-chloroethan-1-one bis(2,2,2-trifluoroacetate)] | 5550 nM
18 | O[C@@H]1C[C@@H]2CN(c3nc(OCCc4nccn4C(F)F)nc4c(F)c(-c5cccc6cccc(Cl)c56)ncc34)C[C@H]1N2 [Example 166, (1R,5R,6R)-3-(7-(8-chloronaphthalen-1-yl)-2-(2-(1-(difluoromethyl)-1H-imidazol-2-yl)ethoxy)-8-fluoropyrido[4,3-d]pyrimidin-4-yl)-3,8-diazabicyclo[3.2.1]octan-6-ol] | 1290 nM
19 | Cc1nccn1CCOc1nc(N2C[C@H]3C[C@@H](O)[C@@H](C2)N3)c2cnc(-c3cccc4cccc(Cl)c34)c(F)c2n1 [Example 167, (1R,5R,6R)-3-(7-(8-chloronaphthalen-1-yl)-8-fluoro-2-(2-(2-methyl-1H-imidazol-1-yl)ethoxy)pyrido[4,3-d]pyrimidin-4-yl)-3,8-diazabicyclo[3.2.1]octan-6-ol] | 226 nM
20 | O[C@@H]1C[C@@H]2CN(c3nc(OCCn4ccnc4CF)nc4c(F)c(-c5cccc6cccc(Cl)c56)ncc34)C[C@H]1N2 [Example 168, (1R,5R,6R)-3-(7-(8-chloronaphthalen-1-yl)-8-fluoro-2-(2-(2-(fluoromethyl)-1H-imidazol-1-yl)ethoxy)pyrido[4,3-d]pyrimidin-4-yl)-3,8-diazabicyclo[3.2.1]octan-6-ol] | 583 nM
21 | O[C@@H]1C[C@@H]2CN(c3nc(OCCn4ccnc4C(F)(F)F)nc4c(F)c(-c5cccc6cccc(Cl)c56)ncc34)C[C@H]1N2 [Example 169, (1R,5R,6R)-3-(7-(8-chloronaphthalen-1-yl)-8-fluoro-2-(2-(2-(trifluoromethyl)-1H-imidazol-1-yl)ethoxy)pyrido[4,3-d]pyrimidin-4-yl)-3,8-diazabicyclo[3.2.1]octan-6-ol] | 657 nM
22 | O[C@@H]1C[C@@H]2CN(c3nc(OCCc4nccn4CF)nc4c(F)c(-c5cccc6cccc(Cl)c56)ncc34)C[C@H]1N2 [Example 170, (1R,5R,6R)-3-(7-(8-chloronaphthalen-1-yl)-8-fluoro-2-(2-(1-(fluoromethyl)-1H-imidazol-2-yl)ethoxy)pyrido[4,3-d]pyrimidin-4-yl)-3,8-diazabicyclo[3.2.1]octan-6-ol] | 842 nM
23 | OCc1nccn1CCOc1nc(N2CC3CCC(C2)N3)c2cnc(-c3cccc4cccc(Cl)c34)c(F)c2n1 [Example 171, (1-(2-((4-(3,8-diazabicyclo[3.2.1]octan-3-yl)-7-(8-chloronaphthalen-1-yl)-8-fluoropyrido[4,3-d]pyrimidin-2-yl)oxy)ethyl)-1H-imidazol-2-yl)methanol] | 757 nM
24 | O[C@@H]1C[C@@H]2CN(c3nc(OCCn4ccnc4C(F)F)nc4c(F)c(-c5cccc6cccc(Cl)c56)ncc34)C[C@H]1N2 [Example 172, (1R,5R,6R)-3-(7-(8-chloronaphthalen-1-yl)-2-(2-(2-(difluoromethyl)-1H-imidazol-1-yl)ethoxy)-8-fluoropyrido[4,3-d]pyrimidin-4-yl)-3,8-diazabicyclo[3.2.1]octan-6-ol] | 689 nM
25 | Cc1cc(-c2ncc3c(N4C[C@H]5CC[C@@H](C4)N5)nc(OCC45CCCN4CCC5)nc3c2F)c2c(Cl)cccc2c1 [Example 175, 4-((1R,5S)-3,8-diazabicyclo[3.2.1]octan-3-yl)-7-(8-chloro-3-methylnaphthalen-1-yl)-8-fluoro-2-((hexahydro-1H-pyrrolizin-7a-yl)methoxy)pyrido[4,3-d]pyrimidine] | 63.8 nM
